Assay results: patent EP4772509A1, “KINESIN KIF18A INHIBITOR, AND APPLICATION THEREOF” (Shanghai Apeiron Therapeutics Company Limited, priority 2023, dated 2025)
Read-outs that look alike come from different tables or passages of the source.

Tests used:
[1] = molecular target: T1, Human KIF18A (amino acid sequence 1-417) (Homo sapiens, UniProt Q8NI77); experiment: Enzymatic activity test (ADP-Glo, microtubule-stimulated ATPase); type: biochemical; details: 60 µg/mL microtubules, 25 µM ATP, 2.5 nM KIF18A protein, 120 min at ambient temperature, chemiluminescence; read-out: KIF18A IC50
T1 construct: purchased Viva Biotech (Shanghai) Ltd
T1 sequence (Q8NI77 1-417): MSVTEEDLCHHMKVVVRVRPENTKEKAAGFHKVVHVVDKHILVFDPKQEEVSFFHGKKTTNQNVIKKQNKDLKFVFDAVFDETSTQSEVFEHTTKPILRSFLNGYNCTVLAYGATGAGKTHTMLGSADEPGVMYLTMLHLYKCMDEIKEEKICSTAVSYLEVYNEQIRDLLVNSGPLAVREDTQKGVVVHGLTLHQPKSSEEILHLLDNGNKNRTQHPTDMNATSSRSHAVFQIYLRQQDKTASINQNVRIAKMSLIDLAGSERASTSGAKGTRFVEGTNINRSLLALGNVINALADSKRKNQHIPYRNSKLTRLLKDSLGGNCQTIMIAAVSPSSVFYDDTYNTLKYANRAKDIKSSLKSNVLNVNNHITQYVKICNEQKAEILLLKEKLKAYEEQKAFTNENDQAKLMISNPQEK
Summary of the method: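 KIF18A (1-417) at 2.5 nM with 60 µg/mL microtubules and 25 µM ATP, compounds at 0-10 µM final, reacted 120 min at ambient temperature. ADP formed was read by ADP-Glo chemiluminescence after two 30 min room-temperature steps.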

[2] = test system: OVCAR3 cells; experiment: Cell proliferation activity test (CyQUANT Direct); type: cell-based; details: 3 days, 0.2% DMSO, CyQUANT fluorescence
Summary of the method: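 OVCAR3 cells in RPMI-1640 with 10% FBS were seeded, then treated overnight later with compound at final 0–10 µM (0.2% DMSO) for 3 days at 37°C, 5% CO2. Proliferation was read as CyQUANT Direct fluorescence after 60 min at 37°C.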

[3] = test system: HT29 cells; experiment: CyQuant cell proliferation activity test; type: cell-based; details: HT29 at 2000 cells per well, 3 days, 0.2% DMSO, XLFIT
Summary of the method: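 Cells seeded at 2000/well in RPMI-1640 with 10% FBS, left overnight, then exposed 3 days at 37 °C, 5% CO2 to a 9-point 3-fold series from 3000 nM (0.2% DMSO). CyQuant signal read after 1 h; IC50 from curve fit.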

Compound	IC50 [1] [nM]	IC50 ([2]; Homo sapiens, OVCAR-3, 72 h) [nM]	IC50 ([3]; Homo sapiens, HT-29, 72 h) [nM]	IC50 [2] [nM]	IC50 ([3]; read-out: HT-29 IC50) [nM]
Cc1cc2nc(n1)N1CCC(F)(F)C(C=CCc3ccc(cc3)-c3cc(NS(=O)(=O)CCO)ccc3C(=O)N2)C1 (stereo not drawn) [Example 55, N-(1^4,1^4-difluoro-2^6-methyl-4-oxo-3-aza-2(2,4)-pyrimidin-1(1,3)-piperidin-5(1,2),6(1,4)-diphenylheterocyclonon-8-en-5^4-yl)-2-hydroxyethane-1-sulfonamide]	88	30	29		
Cc1cc2nc(n1)N1CCC(F)(F)C(/C=C/CC3CCN(CC3)c3cc(NS(=O)(=O)CCO)c4c(c3C(=O)N2)OCC4=O)C1 (stereo not drawn) [Example 14A, N-(1^4,1^4-difluoro-2^6-methyl-5^3,4-dioxo-5^2,5-dihydro-3-aza-2(2,4)-pyrimidin-1(1,3),6(1,4)-dipiperidin-5(7,6)-benzofurancyclononane-8-en-5^4-yl)-2-hydroxyethane-1-sulfonamide]	44	635	837		
2-Hydroxy-N-(1^4,1^4,5^1,5^1-tetrafluoro-2^6-methyl-4-dioxo-5^2,5^3-dihydro-5^1H-3-aza-2(2,4)-pyrimidin-1(1,3),6(1,4)-dipipe ridin-5(4,5)-benzofurancyclononane-8-en-5^7-yl)-methanesulfonamide [Example 21]	450			78	85
Cc1cc2nc(n1)N1CCC(F)(F)C(CCCc3ccc(cc3)-c3cc(NS(=O)(=O)CCO)ccc3C(=O)N2)C1 (single isomer, unassigned) [Example 46A, N-(1^4,1^4-difluoro-2^6-methyl-4-oxo-3-aza-2(2,4)-pyrimidin-1(1,3)-piperidin-5(1,2),6(1,4)-diphenylheterocyclononane-5^4-yl)-2-hydroxyethane-1-sulfonamide]	117	36	58		
Cc1cc2nc(n1)N1CCC(F)(F)C(CCCc3ccc(nc3)-c3cc(NS(=O)(=O)CCO)ccc3C(=O)N2)C1 (stereo not drawn) [Example 49, N-(1^4,1^4-difluoro-2^6-methyl-4-oxo-3-aza-2(2,4)-pyrimidin-6(2,5)-pyridin-1(1,3)-piperidin-5(1,2)-phenylheterocyclononane-5^4-yl)-2-hydroxyethane-1-sulfonamide]	187	1080	1310		
COc1cc2nc(n1)N1CCC(F)(F)C(CCCc3ccc(cc3)-c3cc(NS(=O)(=O)CCO)ccc3C(=O)N2)C1 (single isomer, unassigned) [Example 51A, N-(1^4,1^4-difluoro-2^6-methoxy-4-oxo-3-aza-2(2,4)-pyrimidin-1(1,3)-piperidin-5(1,2),6(1,4)-dibenzylcyclononane-5^4-yl)-2-hydroxyethane-1-sulfonamide]	107	45	39		
Cc1cc2nc(n1)N1CCC(F)(F)C(C=CCC3CCN(CC3)c3cc(NS(=O)(=O)CCO)c4c(c3C(=O)N2)CCC4=O)C1 (single isomer, unassigned) [Example 2C, N-(1^4,1^4-difluoro-2^6-methyl-5^1,4-dioxo-5^2,5^3-dihydro-5^1H-3-aza-2(2,4)-pyrimidin-1(1,3),6(1,4)-dipiperidin-5(4,5)-indenoheterocyclonon-8-en-5^7-yl)-2-hydroxyethane-1-sulfonamide]	43			25	25
Cc1cc2nc(n1)N1CCC(F)(F)C(C=CCC3=CC=C(S3)c3cc(NS(=O)(=O)CCO)ccc3C(=O)N2)C1 (stereo not drawn) [Example 57, N-(1^4,1^4-difluoro-2^6-methyl-4-oxo-3-aza-2(2,4)-pyrimidin-1(1,3)-piperidin-6(2,5)-thiophene-5(1,2)-benzoazacyclon-8-en-5^4-yl)-2-hydroxyethane-1-sulfonamide]	52	119	22		
Cc1cc2nc(n1)N1CCC(F)(F)C(/C=C\CC3CCN(CC3)c3cc(NS(=O)(=O)CCO)c4c(c3C(=O)N2)CCC4)C1 (stereo not drawn) [Example 4, N-(1^4,1^4-difluoro-2^6-methyl-4-oxo-5^2,5^3-dihydro-5^1H-3-aza-2(2,4)-pyrimidin-1(1,3),6(1,4)-dipiperidin-5(4,5)-indenoheterocyclonon-8-en-5^7-yl)-2-hydroxyethane-1-sulfonamide]	404	49	55		
Cc1cc2nc(n1)N1CCC(F)(F)C(/C=C\CC3CCN(CC3)c3cc(NS(=O)(=O)CCO)c4c(c3C(=O)N2)CCC4(C)O)C1 (stereo not drawn) [Example 13, (cis)-N-(1^4,1^4-difluoro-5^1-hydroxy-2^6,5^1-dimethyl-4-oxo-5^2,5^3-dihydro-5^1H-3-aza-2(2,4)-pyrimidin-1(1,3),6(1,4)-dipiperidin-5(4,5)-indenocyclononane-8-en-5^7-yl)-2-hydroxyethane-1-sulfonamide]	294	181	187		

Continued, values first:

IC50 [1] [nM]	IC50 ([2]; Homo sapiens, OVCAR-3, 72 h) [nM]	IC50 ([3]; Homo sapiens, HT-29, 72 h) [nM]	IC50 [2] [nM]	IC50 ([3]; read-out: HT-29 IC50) [nM]	Compound
67	116	42			Cc1cc2nc(n1)N1CCC(F)(F)C(CCCC3=CC=C(S3)c3cc(NS(=O)(=O)CCO)ccc3C(=O)N2)C1 (stereo not drawn) [Example 58, N-(1^4,1^4-difluoro-2^6-methyl-4-oxo-3-aza-2(2,4)-pyrimidin-1(1,3)-piperidin-6(2,5)-thiophene-5(1,2)-benzoazacyclononane-5^4-yl)-2-hydroxyethane-1-sulfonamide]
491			178	254	N-((3^4Z, 7Z)-1^4,1^4-difluoro-2^6-methyl-3^1H-2(2,4)-pyrimidin-1(1,3),5(1,4)-dipiperidin-3(4,1)-triazole-4(1,2)-benzocyclooct-7-en-4^4-y 1)-2-hydroxyethane-1-sulfonamide [Example 81B]
219			22	23	N-((3^4Z, 7Z)-1^4,1^4-difluoro-2^6-methyl-3^1H-2(2,4)-pyrimidin-1(1,3),5(1,4)-dipiperidin-3(4,1)-triazole-4(1,2)-benzocyclooct-7-en-4^4-y 1)-2-hydroxyethane-1-sulfonamide [Example 81A]
405			173	164	Methyl(3^4Z,7Z)-1^4,1^4-difluoro-4^4-((2-hydroxyethyl)sulfonamido)-2^6-methyl 3^1H-2(2,4)-pyrimidin-1(1,3),5(1,4)-dipiperidin-3(4,1)-triazole-4(1,2)-benzocyclooct-7-en-4^5 carboxylate [Example 92B]
521			500	671	N-((3^4Z,7E)-1^4,1^4-difluoro-2^6-methyl-3^1H-2(2,4)-pyrimidin-1(1,3),5(1,4)-dipiperidin-3(4,1)-triazole-4(1,2)-benzocyclooct-7 -en-4^4-yl)-2-hydroxyethane-1-sulfonamide [Example 81C]
132			31	29	N-((3^4Z,7E)-1^4,1^4-difluoro-2^6-methyl-3^1H-2(2,4)-pyrimidin-1(1,3),5(1,4)-dipiperidin-3(4,1)-triazole-4(1,2)-benzocyclooct-7 -en-4^4-yl)-2-hydroxyethane-1-sulfonamide [Example 81D]
